Experimental data reported in publication PMC6718946 (Toxicology Reports, 2019).
pIC50, pKi: −log10 of the molar value. Several values for one entry are separate records, joined by “and”; a condition that tells them apart may be missing. Identical values can stand only once. Like-named read-outs stand apart in the source and are kept apart here.

What was measured:
[1] = target: acetylcholinesterase (AChE) (Electrophorus electricus, UniProt O42275); conditions: for pIC50 / IC50: estimated from Fig. 1; for pIC50: 30 °C, pH 8.0, 1.25% DMSO
Chain of acetylcholinesterase (AChE) (O42275 24-633): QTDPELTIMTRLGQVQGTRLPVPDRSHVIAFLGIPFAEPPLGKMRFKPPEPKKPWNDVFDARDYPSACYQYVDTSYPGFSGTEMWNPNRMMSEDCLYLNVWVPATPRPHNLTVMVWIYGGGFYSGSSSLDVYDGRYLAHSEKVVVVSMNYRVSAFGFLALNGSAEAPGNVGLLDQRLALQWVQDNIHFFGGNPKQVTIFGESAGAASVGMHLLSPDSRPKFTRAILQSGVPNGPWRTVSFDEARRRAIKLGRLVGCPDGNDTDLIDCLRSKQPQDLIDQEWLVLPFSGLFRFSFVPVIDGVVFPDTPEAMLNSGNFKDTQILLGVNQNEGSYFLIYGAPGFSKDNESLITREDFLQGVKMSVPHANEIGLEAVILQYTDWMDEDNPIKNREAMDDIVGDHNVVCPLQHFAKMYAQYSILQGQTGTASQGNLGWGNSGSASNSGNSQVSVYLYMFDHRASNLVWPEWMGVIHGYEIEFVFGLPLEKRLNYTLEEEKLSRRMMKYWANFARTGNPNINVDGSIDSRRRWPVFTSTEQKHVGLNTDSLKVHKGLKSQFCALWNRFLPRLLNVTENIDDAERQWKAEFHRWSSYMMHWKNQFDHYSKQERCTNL

AChE [2] = conditions: cited from earlier work
Artemia salina [3] = conditions: in vivo; cited from earlier work
AChE [4] = conditions: cited from earlier work; remark: listed apart in the source
AChE [5] = conditions: cited from earlier work; remark: listed apart in the source
Artemia salina [6] = assay: Toxicology assay on Artemia salina model; conditions: for Mortality of A. salina: 24 h

For `O=c1cccc2n1CC1CC2CN(C(=S)NC23CC4CC(CC(C4)C2)C3)C1` (centres unmarked) [Compound U-12, N-1-Adamantylcytisine-12-thiocarbamide], the “Inhibition mechanism” value ([1]; Lineweaver-Burk analysis) was “Uncompetitive”, the pIC50 [1] was ~2.47 and 2.47 and the IC50 ([1]; expressed in g L^−1) was “≈ 1.4 g L^−1”. The IC50 ([1]; expressed in ppm) was 1400 ppm and the pKi ([1]; read-out: Ki (inhibition constant), Lineweaver-Burk analysis) was 4.15.

In the case of `C=C(C)C1CC=C(C)C(=O)C1` (centres unmarked) [S-carvone], the Inhibition mechanism (AChE [2]) is listed as “mixed AChE inhibition”.

With Cytisine-12-carbamide [Compound A-36] the “Inhibition mechanism” value ([1]; Lineweaver-Burk analysis) was “Competitive”.

For `C=CCc1ccc(OC)cc1` [estragole], the Inhibition mechanism (AChE [2]) is given as “mixed AChE inhibition”.

For `CNC(=O)Oc1ccc2c(c1)[C@]1(C)CCN(C)[C@@H]1N2C` [Eserine], the Effect on larvae (Artemia salina [3]) is given as “larval paralysis” and the “Inhibition of AChE activity in Artemia salina” value (Artemia salina [3]) is given as “strongly inhibit”.

For `COc1ccc2c3c1O[C@H]1C[C@@H](O)C=C[C@@]31CCN(C)C2` [galanthamine], the Inhibition mechanism (AChE [4]) is listed as “competitive”.

In the case of `CC[N+](C)(C)c1cccc(O)c1` [edrophonium], the Inhibition mechanism (AChE [5]) is given as “competitive”.

With `C=CCNC(=O)N1C[C@H]2C[C@H](C1)c1cccc(=O)n1C2` [Compound A-63, N-Allylcytisine-12-carbamide] the “Mortality of A. salina” value (Artemia salina [6]; at 1000 ppm) was 3%, the “Mortality of A. salina” value (Artemia salina [6]; at 2000 ppm) was 3% and the “Toxicity classification according to Artemia salina test” value (Artemia salina [6]; class by percent mortality of nauplii) was “non-toxic (0–10% non-toxic compound)”. The “Effect on A. salina viability” value (Artemia salina [6]; concentration less than 1000 ppm) was “did not affect”, the “Effect on A. salina viability” value (Artemia salina [6]; concentration less than 2000 ppm) was “not affected” and the “Inhibition mechanism” value ([1]; Lineweaver-Burk analysis) was “mixed”. For the same compound, the “Inhibition mechanism” value ([1]; Lineweaver-Burk analysis, listed as A63) was “Mixed inhibition”, the pIC50 [1] was ~2.83 and 2.83 and the IC50 ([1]; expressed in g L^−1) was “≈ 0.4 g L^−1”. The IC50 ([1]; expressed in ppm) was 400 ppm and the “α´ (effect on Vmax)” value ([1]; mixed inhibition parameter) was 0.05.

In the case of `CC12CCC(CC1=O)C2(C)C` (centres unmarked) [camphor], the Inhibition mechanism (AChE [2]) is given as “mixed AChE inhibition”.

With “1-Hydroxyquinopimaric acid [Compound U-201]” the “Inhibition mechanism” value ([1]; Lineweaver-Burk analysis) was “Competitive”.

In the case of `C[n+]1c2ccccc2cc2ccccc21` [N-methylacridinium], the Inhibition mechanism (AChE [5]) is listed as “competitive”.
